Laboratory results published in EP2676954A1, “Heterocyclyl-substituted-phenyl derivatives as vasodilators” (Laboratorios del Dr. Esteve S.A., priority 2012, dated 2013).

Test system: Male Wistar rats
Experiment: Penile erection test (penile erection score) in conscious rats
Format: in vivo
Details: after local injection (animal studies)
Procedure: Male Wistar rats aged from 8 to 10 weeks old (250 - 320 g) were used in these studies. Animals were housed in groups of five, provided with food and water ad libitum and kept in controlled laboratory conditions with the temperature maintained at 22 ± 2 °C and light in 12 h cycles (on at 06:00 h and off at 18:00 h). Experiments were carried out in a soundproof and air-regulated experimental room. The number of rats ranged from 5 to 34 per group in each individual experiment.
Drugs used for treatments were: Compound 1, Compound 2, Compound 3 and Alprostadil.
Male Wistar rats received local injections (intrapenis injections) or topical administrations of test substances and penile erection was quantified (penile erection score) from 15 to 30 min after local drug injection and from 5 to 60 min after topical drug administration. The magnitude of penile erection is determined by penile erection score. The Baseline was determined based on vehicle injection. […]
For evaluating the penile erection after both types of administration, a qualitative score method was used, where 0 = no effect, 1 = slight effect, 2 = some effect without exposure of the penis, and 3 = clear effect with exposure of the penis. The reading times for the local injection were 15 and 30 minutes, and for the topical application were 5, 15, 30, and 60 minutes.
Data are expressed as Mean±SEM. […]

| Compound | penile erection |
| --- | --- |
| Cc1nn(C)c(C)c1-c1ccc(O)c(CCN(C)C)c1 [Compound 1, 2-(2-(Dimethylamino)ethyl)-4-(1,3,5-trimethyl-1H-pyrazol-4-yl)phenol] | cause penile erection in the absence of sexual stimulation |
| Cc1nn(C)c(C)c1-c1cccc(CCN(C)C)c1 [Compound 2, Dimethyl-{2-[3-(1,3,5-trimethyl-1H-pyrazol-4-yl)-phenyl]-ethyl}-amine] | cause penile erection in the absence of sexual stimulation |
